Data: patent publication US8367366B2, “Methods and kits for quantitative methyltransferase and demethylase measurements” (The Board of Trustees of the University of Arkansas, priority 2010, dated 2013)

Molecular target: LSD1 (Homo sapiens, UniProt O60341)
Assay: biochemical
Details: read-out: inhibits LSD1 activity
Method: MassSQUIRM Lysine residues were chemically dimethylated using a reductive methylation technique adapted from Rayment, et al (21). […] This reaction was incubated for 2 hours at 4° C. Fresh aliquots of borane dimethylamine and formaldehyde were added and the reaction was again incubated at 4° C. for two hours. A final aliquot of borane dimethylamine was added and the reaction was incubated at 4° C. for ˜16 hours. The reaction was quenched with 80 mM Tris-Cl, pH 7.5. Peptides were incubated with POROS R220 micron beads (Applied Biosystems), collected with a C18 ZipTip™ (Millipore) and spotted for MALDI analysis in 2,5-dihydroxybenzoic acid. Mass spectra of peptides were collected with a MALDI-prOTOF mass spectrometer (PerkinElmerSciex) (61, 62). Spectra were viewed and peak areas extracted using MoverZ™ software (Genomic Solutions). Reaction products were verified by MS^2 with a Thermo LTQ XL mass spectrometer coupled to a NanoLC-2D™ liquid chromatography system (Eksigent).
Demethylase Assay. […] The reaction proceeded for 2 hr at 37° C. Reaction products were collected with POROS R2 20 micron beads for 15 minutes at room temperature, loaded into a C18 ZipTip, eluted in 40 μL 70% acetonitrile/0.1% TFA, lyophilized, and subjected to MassSQUIRM as described above.
LSD1 Inhibition Assay. […]

With `NNCCc1ccccc1` [phenylethylhydrazine] the inhibition at 16700 µM was 96%.
